Reference: the supplement of paper PMC10307832

How the values were obtained:
Assay in all cases: relative viability (nuclei count vs DMSO), 5 days (fraction); higher = more cells survive
[1] = compound: CCOC1=CC=CC=C1N=NC2=C(NN(C2=O)C3=NC(=CS3)C4=CC=CC=C4)C [BAM7] + C[C@@H](Oc1cc(-c2cnn(C3CCNCC3)c2)cnc1N)c1c(Cl)ccc(F)c1Cl [Crizotinib] (partner 1 µM)
In short: (§1)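 Lung cancer cell lines were seeded in 1536-well plates and dosed by pin tool the next day, with either a single drug or a fixed anchor-drug dose combined with five library-drug doses (not always all listed) spaced in √10 steps. Five days later, one step fixed the cells and stained their nuclei (final 0.05% Triton X-100, 1% formaldehyde, 1 ug/ml Hoechst), and nuclei were counted on 4× images. Relative viability is the nuclei count in treated wells divided by the count in vehicle wells, and each value is the median of duplicate plates.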

[2] = compound: CCOC1=CC=CC=C1N=NC2=C(NN(C2=O)C3=NC(=CS3)C4=CC=CC=C4)C [BAM7] + Nc1ncn([C@H]2C[C@H](O)[C@@H](CO)O2)c(=O)n1 [Decitabine] (partner 2 µM)
In short: as §1

[3] = compound: CCn1c(-c2nonc2N)nc2c(C#CC(C)(C)O)ncc(OC[C@H]3CCCNC3)c21 + Cc1cc(Nc2cc(N3CCN(C)CC3)nc(Sc3ccc(NC(=O)C4CC4)cc3)n2)n[nH]1 [Tozasertib] (partner 0.1 µM)
In short: as §1

[4] = compound: CCn1c(-c2nonc2N)nc2c(C#CC(C)(C)O)ncc(OC[C@H]3CCCNC3)c21 + O=C(CCCCCCC(=O)Nc1ccccc1)NO [Vorinostat] (partner 1 µM)
In short: as §1

Cell Line | relative viability ([1]; first compound 0.5 µM) | relative viability ([1]; first compound 5 µM) | relative viability ([1]; first compound 15.81 µM) | relative viability ([1]; first compound 50 µM) | relative viability ([2]; first compound 0.5 µM) | relative viability ([2]; first compound 5 µM) | relative viability ([2]; first compound 15.81 µM) | relative viability ([2]; first compound 50 µM) | relative viability ([3]; first compound 0.01 µM) | relative viability ([3]; first compound 0.03162 µM) | relative viability ([3]; first compound 0.1 µM) | relative viability ([3]; first compound 0.3162 µM) | relative viability ([3]; first compound 1 µM) | relative viability ([4]; first compound 0.01 µM) | relative viability ([4]; first compound 0.03162 µM) | relative viability ([4]; first compound 0.1 µM) | relative viability ([4]; first compound 0.3162 µM) | relative viability ([4]; first compound 1 µM)
NCI-H2126 | 0.969 | 0.88 | 0.832 | 0.87 | 0.55 | 0.548 | 0.509 | 0.617 | 0.829 | 0.885 | 0.806 | 0.817 | 0.863 | 0.754 | 0.743 | 0.791 | 0.741 | 0.792
HOP-62 | 0.931 | 1.02 | 0.83 | 0.854 | 0.191 | 0.256 | 0.226 | 0.255 | 0.369 | 0.316 | 0.308 | 0.406 | 0.404 | 0.635 | 0.688 | 0.644 | 0.555 | 0.644
NCI-H520 | 0.705 | 0.747 | 0.856 | 0.684 | 0.54 | 0.478 | 0.484 | 0.525 | 0.41 | 0.482 | 0.323 | 0.358 | 0.335 | 0.706 | 0.711 | 0.585 | 0.543 | 0.5
NCI-H1755 | 0.917 | 0.935 | 0.829 | 0.85 | 0.667 | 0.774 | 0.711 | 0.793 | 0.617 | 0.498 | 0.572 | 0.55 | 0.61 | 0.725 | 0.66 | 0.637 | 0.762 | 0.841
NCI-H2023 | 0.631 | 0.59 | 0.454 | 0.524 | 0.218 | 0.225 | 0.191 | 0.246 | 0.339 | 0.379 | 0.341 | 0.305 | 0.343 | 0.615 | 0.642 | 0.58 | 0.394 | 0.488
NCI-H2009 | 1.12 | 1.05 | 0.973 | 0.987 | 0.369 | 0.39 | 0.351 | 0.418 | 0.72 | 0.811 | 0.724 | 0.668 | 0.771 | 0.726 | 0.708 | 0.788 | 0.706 | 0.821
